From patent US6340758B1, “Conformationally semi-constrained quinoxaline 2,3-diones as neuroprotective agents” (Warner-Lambert Company, priority 1997, dated 2002)

melting point: 205 to 206 °C
Compound: Cc1c([N+](=O)[O-])cc2[nH]c(=O)c(=O)[nH]c2c1-c1nnc(N)o1 [Example 1, 5-(5-Amino-[1,3,4]oxadiazol-2-yl)-6-methyl-7-nitro-1,4-dihydro-quinoxaline-2,3-dione]
